{"source": "patent US7982047B2", "about": "“Derivatives of 1,3-diones having a herbicidal activity” (Isagro Ricerca S.r.l., priority 2003, dated 2011)", "key": {"Chenopodium album [1]": {"test_system": "Chenopodium album", "test": "Post-emergence herbicidal activity", "type": "in vivo", "conditions": "500 g/ha, evaluated fifteen days after the treatment, damage vs blank", "experimental": "(§1) Determination of the Herbicidal Activity and Phyto-Toxicity in Post-emergence The herbicidal activity of the compounds of the invention in post-emergence was evaluated according to the following operative procedures. The plant species of interest (weeds or crops) were sown in pots with an upper diameter of 10 cm, a height of 10 cm and containing sandy soil. 10 pots were used for each plant species. Water was added to each pot in such a quantity as to germinate the seeds. The pots were divided into two groups, each containing 5 pots for each weed or crop. Fifteen days after sowing (ten, in the case of wheat), when the weeds and crops, according to the species, were 10-15 cm high, the first set of pots was treated with a hydro-acetonic dispersion containing acetone at 10% in volume, the product under evaluation at the desired concentration and Tween 20 at 0.5%. The second set was treated with a hydro-acetonic solution only, containing acetone at 10% in volume and Tween 20 at 0.5%, and was used as comparison (blank). All pots were kept under observation in a conditioned environment under the following conditions: • temperature: 24° C.; • relative humidity: 60%; • photo-period: 16 hours; • light intensity: 10000 lux. The pots were uniformly watered every other day so as to ensure a humidity degree sufficient for a good development of the plants. The herbicidal activity was evaluated fifteen days after the treatment, on the basis of the following values which refer to the percentage of damage tested on the treated plants with respect to the non-treated plants (blank): [table]"}, "Galium aparine [2]": {"test_system": "Galium aparine", "test": "Post-emergence herbicidal activity", "type": "in vivo", "conditions": "500 g/ha, evaluated fifteen days after the treatment, damage vs blank", "experimental": "as §1"}, "Abutilon theofrasti [3]": {"test_system": "Abutilon theofrasti", "test": "Post-emergence herbicidal activity", "type": "in vivo", "conditions": "500 g/ha, evaluated fifteen days after the treatment, damage vs blank", "experimental": "as §1"}, "Solanum nigrum [4]": {"test_system": "Solanum nigrum", "test": "Post-emergence herbicidal activity", "type": "in vivo", "conditions": "500 g/ha, evaluated fifteen days after the treatment, damage vs blank", "experimental": "as §1"}, "Portulaca oleracea [5]": {"test_system": "Portulaca oleracea", "test": "Post-emergence herbicidal activity", "type": "in vivo", "conditions": "500 g/ha, evaluated fifteen days after the treatment, damage vs blank", "experimental": "as §1"}, "Stellaria media [6]": {"test_system": "Stellaria media", "test": "Post-emergence herbicidal activity", "type": "in vivo", "conditions": "500 g/ha, evaluated fifteen days after the treatment, damage vs blank", "experimental": "as §1"}, "Chenopodium album [7]": {"test_system": "Chenopodium album", "test": "Pre-emergence herbicidal activity", "type": "in vivo", "conditions": "500 g/ha, evaluated fifteen days after the treatment, damage vs blank", "experimental": "(§2) Determination of the Herbicidal Activity and Phyto-Toxicity in Pre-Emergence The herbicidal activity of the compounds of the invention in pre-emergence was evaluated according to the following operative procedures. The plant species of interest (weeds or crops) were sown in pots with an upper diameter of 10 cm, a height of 10 cm and containing sandy soil. 10 pots were used for each plant species. Water was added to each pot in such a quantity as to germinate the seeds. The pots were divided into two groups, each containing 5 pots for each weed or crop. After one day from the sowing, the first set of pots was treated with a hydro-acetonic dispersion containing acetone at 10% in volume, the product under evaluation at the desired concentration and Tween 20 at 0.5%. The second set was treated with a hydro-acetonic solution only, containing acetone at 10% in volume and Tween 20 at 0.5%, and was used as comparison (blank). All pots were kept under observation in a conditioned environment under the following conditions: • temperature: 24° C.; • relative humidity: 60%; • photoperiod: 16 hours; • light intensity: 10000 lux. The pots were uniformly watered in order to ensure a sufficient humidity degree for a good development of the plants. Fifteen days after the treatment, the herbicidal activity was evaluated on the basis of the following values, which refer to the damage percentage tested on the treated plants, with respect to the non-treated plants (blank): [table]"}, "Galium aparine [8]": {"test_system": "Galium aparine", "test": "Pre-emergence herbicidal activity", "type": "in vivo", "conditions": "500 g/ha, evaluated fifteen days after the treatment, damage vs blank", "experimental": "as §2"}, "Ipomea purpurea": {"test_system": "Ipomea purpurea", "test": "Pre-emergence herbicidal activity", "type": "in vivo", "conditions": "500 g/ha, evaluated fifteen days after the treatment, damage vs blank", "experimental": "as §2"}, "Abutilon theofrasti [9]": {"test_system": "Abutilon theofrasti", "test": "Pre-emergence herbicidal activity", "type": "in vivo", "conditions": "500 g/ha, evaluated fifteen days after the treatment, damage vs blank", "experimental": "as §2"}, "Amaranthus retroflexus": {"test_system": "Amaranthus retroflexus", "test": "Pre-emergence herbicidal activity", "type": "in vivo", "conditions": "500 g/ha, evaluated fifteen days after the treatment, damage vs blank", "experimental": "as §2"}, "Solanum nigrum [10]": {"test_system": "Solanum nigrum", "test": "Pre-emergence herbicidal activity", "type": "in vivo", "conditions": "500 g/ha, evaluated fifteen days after the treatment, damage vs blank", "experimental": "as §2"}, "Portulaca oleracea [11]": {"test_system": "Portulaca oleracea", "test": "Pre-emergence herbicidal activity", "type": "in vivo", "conditions": "500 g/ha, evaluated fifteen days after the treatment, damage vs blank", "experimental": "as §2"}, "Stellaria media [12]": {"test_system": "Stellaria media", "test": "Pre-emergence herbicidal activity", "type": "in vivo", "conditions": "500 g/ha, evaluated fifteen days after the treatment, damage vs blank", "experimental": "as §2"}}}
{"smiles": "CS(=O)(=O)c1ccc(C(=O)C(C(=O)C2CC2)c2ccc([N+](=O)[O-])cc2[N+](=O)[O-])c(Cl)c1", "note": "(stereo not shown)", "values": [{"measurement": "melting point", "value": 67, "unit": "°C"}]}
{"smiles": "CS(=O)(=O)c1ccc(C(=O)C(C(=O)C(F)(F)F)c2ccccn2)c(Cl)c1", "note": "(stereo not shown) [Compound N-616, 1-[2-chloro-4-(methylsuiphonyl)phenyl]-2-(pyridin-2-yl)-4,4,4-trifluorobutane-1,3-dione]", "values": [{"measurement": "melting point", "value": 189, "unit": "°C"}]}
{"smiles": "Cn1nnc(C(C(=O)c2ccc(S(C)(=O)=O)cc2Cl)C(=O)C2CC2)n1", "note": "(stereo not shown) [Compound N^o 6, 1-[2-chloro-4-(methylsulphonyl)phenyl]-3-cyclopropyl-2-(2-methyl-2H-tetrazol-5-yl)propane-1,3-dione]", "values": [{"measurement": "Post-emergence herbicidal activity CA", "setting": "Chenopodium album [1]", "value": "5 (91% damage - death of the plant.)"}, {"measurement": "Post-emergence herbicidal activity GA", "setting": "Galium aparine [2]", "value": "5 (91% damage - death of the plant.)"}, {"measurement": "Post-emergence herbicidal activity AT", "setting": "Abutilon theofrasti [3]", "value": "5 (91% damage - death of the plant.)"}, {"measurement": "Post-emergence herbicidal activity SN", "setting": "Solanum nigrum [4]", "value": "5 (91% damage - death of the plant.)"}, {"measurement": "Post-emergence herbicidal activity PO", "setting": "Portulaca oleracea [5]", "value": "5 (91% damage - death of the plant.)"}, {"measurement": "Post-emergence herbicidal activity SM", "setting": "Stellaria media [6]", "value": "5 (91% damage - death of the plant.)"}, {"measurement": "Pre-emergence herbicidal activity CA", "setting": "Chenopodium album [7]", "value": "5 (91% damage - death of the plant.)"}, {"measurement": "Pre-emergence herbicidal activity GA", "setting": "Galium aparine [8]", "value": "5 (91% damage - death of the plant.)"}, {"measurement": "Pre-emergence herbicidal activity IP", "setting": "Ipomea purpurea", "value": "5 (91% damage - death of the plant.)"}, {"measurement": "Pre-emergence herbicidal activity AT", "setting": "Abutilon theofrasti [9]", "value": "5 (91% damage - death of the plant.)"}, {"measurement": "Pre-emergence herbicidal activity AR", "setting": "Amaranthus retroflexus", "value": "5 (91% damage - death of the plant.)"}, {"measurement": "Pre-emergence herbicidal activity SN", "setting": "Solanum nigrum [10]", "value": "5 (91% damage - death of the plant.)"}, {"measurement": "Pre-emergence herbicidal activity PO", "setting": "Portulaca oleracea [11]", "value": "5 (91% damage - death of the plant.)"}, {"measurement": "Pre-emergence herbicidal activity SM", "setting": "Stellaria media [12]", "value": "5 (91% damage - death of the plant.)"}]}
{"smiles": "Cn1nnnc1C(C(=O)c1ccc(S(C)(=O)=O)cc1Cl)C(=O)C1CC1", "note": "(stereo not shown) [Compound N^o 7, 1-[2-chloro-4-(methylsulphonyl)phenyl]-3-cyclopropyl-2-(1-methyl-1H-tetrazol-5-yl)propane-1,3-dione]", "values": [{"measurement": "Pre-emergence herbicidal activity CA", "setting": "Chenopodium album [7]", "value": "5 (91% damage - death of the plant.)"}, {"measurement": "Pre-emergence herbicidal activity AT", "setting": "Abutilon theofrasti [9]", "value": "5 (91% damage - death of the plant.)"}, {"measurement": "Pre-emergence herbicidal activity AR", "setting": "Amaranthus retroflexus", "value": "5 (91% damage - death of the plant.)"}, {"measurement": "Pre-emergence herbicidal activity SN", "setting": "Solanum nigrum [10]", "value": "5 (91% damage - death of the plant.)"}, {"measurement": "Pre-emergence herbicidal activity PO", "setting": "Portulaca oleracea [11]", "value": "5 (91% damage - death of the plant.)"}, {"measurement": "Pre-emergence herbicidal activity SM", "setting": "Stellaria media [12]", "value": "5 (91% damage - death of the plant.)"}]}
{"smiles": "Cc1noc(C(C(=O)c2ccc(S(C)(=O)=O)cc2Cl)C(=O)C2CC2)n1", "note": "(stereo not shown) [Compound N^o 11, 1-[2-chloro-4-(methylsulphonyl)phenyl]-3-cyclopropyl-2-(3-methyl-1,2,4-oxadiazol-5-yl)propane-1,3-dione]", "values": [{"measurement": "Post-emergence herbicidal activity CA", "setting": "Chenopodium album [1]", "value": "5 (91% damage - death of the plant.)"}, {"measurement": "Post-emergence herbicidal activity AT", "setting": "Abutilon theofrasti [3]", "value": "5 (91% damage - death of the plant.)"}, {"measurement": "Post-emergence herbicidal activity SN", "setting": "Solanum nigrum [4]", "value": "5 (91% damage - death of the plant.)"}, {"measurement": "Pre-emergence herbicidal activity CA", "setting": "Chenopodium album [7]", "value": "5 (91% damage - death of the plant.)"}, {"measurement": "Pre-emergence herbicidal activity IP", "setting": "Ipomea purpurea", "value": "5 (91% damage - death of the plant.)"}, {"measurement": "Pre-emergence herbicidal activity AT", "setting": "Abutilon theofrasti [9]", "value": "5 (91% damage - death of the plant.)"}, {"measurement": "Pre-emergence herbicidal activity PO", "setting": "Portulaca oleracea [11]", "value": "5 (91% damage - death of the plant.)"}]}
{"smiles": "CS(=O)(=O)c1ccc(C(=O)C(C(=O)C2CC2)n2cncn2)c(Cl)c1", "note": "(stereo not shown) [Compound No 460, 1-[2-chloro-4-(methylsulphonyl)phenyl]-3-cyclopropyl-2-(1,2,4-triazol-1-yl)propane-1,3-dione]", "values": [{"measurement": "melting point", "value": 162, "unit": "°C"}]}
{"smiles": "CS(=O)(=O)c1ccc(C(=O)C(C(=O)C2CC2)c2nnc(C(F)(F)F)s2)c(Cl)c1", "note": "(stereo not shown) [Compound No 2918, 1-[2-chloro-4-(thylsulphonyl)phenyl]-3-cyclopropyl-2-(5-trifluoromethyl-1,3,4-thiadiazol-2-yl)propane-1,3-dione]", "values": [{"measurement": "melting point", "value": 185, "unit": "°C"}]}
